{
  "source": "paper PMC5719408",
  "about": "“Multivalent cross-linking of actin filaments and microtubules through the microtubule-associated protein Tau” (Nature Communications, 2017)",
  "key": {"[1]": {"tested_on": "F-actin", "assay": "2D 1H-15N HSQC NMR signal attenuation of Tau by F-actin", "type": "binding, human", "conditions": "Tau/F-actin molar ratio 1:1.5; compared with non-phosphorylated Tau", "description": "In order to identify residues in Tau that bind to F-actin, we used NMR spectroscopy. […] According to the resonance assignment of Tau[27], cross-peaks from residues such as S262, N265, and T319 were strongly attenuated. Other residues including T175 and T217 were less affected, and S46 and S64 were not perturbed. Figure 1f highlights the sequence specific intensity ratio of all non-overlapping cross-peaks of Tau in the presence and absence of F-actin. […] In contrast, residues, which are bound to F-actin, should have low (I bound/I free) values, because their resonances would—due to the high molecular weight of the complex—be attenuated. […] Consistent with this hypothesis, the cross-peaks of these residues were attenuated by F-actin also at higher ionic strength (Supplementary Fig. 3).\nThe sample was then dialyzed against General Actin Buffer (GAB; 5 mM TrisHCl pH 8.0, 0.2 mM CaCl2, 0.2 mM ATP, 0.5 mM DTT) or NMR buffer (50 mM NaH2PO4/Na2HPO4 pH 6.8, 10 mM NaCl, 1 mM DTT, 10% (v/v) D2O) to be used for electron microscopy or NMR experiments, respectively. In case of actin, lyophilized actin was reconstituted to 10 mg ml^−1 by adding 100 μl of distilled water to be in the following buffer: GAB with 5% (w/v) sucrose and 1% (w/v) dextran. […]"}, "[2]": {"tested_on": "F-actin", "assay": "Protein co-sedimentation / actin bundling (differential centrifugation, SDS gel)", "type": "biochemical, human", "conditions": "co-sedimentation; F-actin with Tau (1:1) or Tau peptides (1:10; Tau(254–268) 1:30), room temperature 30 min", "experimental": "The ability of Tau to bundle F-actin was studied using electron microscopy (EM). […] Next, Tau/F-actin co-sedimentation was performed. The same sample, which was used for EM, was exposed to two sequential steps of centrifugation, in which single-actin filaments and actin bundles were collected separately. Subsequently, aliquots from supernatant (SN), filament (PF), and bundle (PB) fractions were loaded in a 4–20% gradient gel (Fig. 1c).\nThe sample was then dialyzed against General Actin Buffer (GAB; 5 mM TrisHCl pH 8.0, 0.2 mM CaCl2, 0.2 mM ATP, 0.5 mM DTT) or NMR buffer (50 mM NaH2PO4/Na2HPO4 pH 6.8, 10 mM NaCl, 1 mM DTT, 10% (v/v) D2O) to be used for electron microscopy or NMR experiments, respectively. In case of actin, lyophilized actin was reconstituted to 10 mg ml^−1 by adding 100 μl of distilled water to be in the following buffer: GAB with 5% (w/v) sucrose and 1% (w/v) dextran. Subsequently, the sample was spun at 18,400 × g for 15 min, the supernatant was kept, and actin was polymerized by incubating 0.4 mg ml^−1 G-actin in GAB and supplemented with polymerization buffer (1/10th the volume; 100 mM Tris HCl pH 7.5, 20 mM MgCl2, 500 mM KCl, 10 mM ATP) for 1 h at room temperature. Afterwards, the sample was centrifuged at 100,000 × g during 1 h at 4 °C. Filaments were collected at the bottom of the ultracentrifuge tube. The pellet was then resuspended in GAB or NMR Buffer as required.\nMixtures of F-actin with Tau (1:1) or Tau peptides (1:10 molar ratio) were incubated at room temperature for 30 min. In case of the shorter peptide Tau(254–268), a 1:30 ratio was used. Centrifugation was performed in two steps. First, a spin rate of 5000 × g was used during 15 min to collect bundles of F-actin (PB) at the bottom of the tube. Secondly, the remaining sample was centrifuged at 100,000 × g during 1 h collecting actin filaments (PF). The final supernatant (SN) was also kept for later usage. Pellets were resuspended in 80 μl of GAB. A volume of 25 μl of sample were taken for EM while the remaining 55 μl were loaded in a 4–20% gradient SDS gel, which was colored with […] and denatured with SDS and heat."}},
  "note": "Entries after “also recorded” stand apart in the source; their conditions may differ.",
  "data": [
    {"substance": "MARK2-phosphorylated Tau: full-length Tau phosphorylated by MARK2 at S262, S293, S305, S324, S356, and S416", "values": [
      {"measurement": "F-actin-induced NMR signal attenuation near phosphorylation sites / F-actin binding in words", "setting": "[1]", "result": "little attenuation of NMR signals in vicinity of the phosphorylation sites; also recorded: attenuates its binding to F-actin"},
      {"measurement": "bundling of F-actin", "setting": "[2]", "result": "failed in bundling actin filaments"}
    ]}
  ]
}
